Patent US8829014B2, “Thiazole and thiophene analogues, and their use in treating autoimmune diseases and cancers” (Board of Supervisors of Louisiana State University and …, priority 2006, dated 2014)

Test system: carageenan-induced edema
Test: Carrageenan-induced rat paw edema test (anti-inflammatory activity)
Type: in vivo, Sprague-Dawley rats
Conditions: Rattus norvegicus, po, 3 h, rat paw edema, 50 mg/kg, reading 3 hours after carrageenan; [(Control−Test)/Control]×100%; read-out: % Protection P
Procedure: Sprague-Dawley rats, male and female, 150-250 g will be used in an edema test. Rats will be deprived of food but not water for 18 hours prior to the experiment. The test compounds will be administered with a blunt-tipped needle orally, 50 mg/kg, as a suspension in 0.1% sodium CMC (carboxymethylcellulose) vehicle. Alternatively, the test compounds will be injected intravenously, subcutaneously, or intraperitoneally. One hour later, 0.1 ml of a 1% carrageenan solution in saline will be injected in the sub-plantar region of the right hind paw of each rat. […] The reading will be repeated 3 hours later. The displacement readings give a measure of carageenan-induced edema. Any reduction in carageenan-induced edema with a test compound, as compared to saline control, is a measure of the anti-inflammatory activity of the test compound. The percentage protection at 50-mg/kg doses was calculated according to the following formula: % Protection=[(Control−Test)/Control]×100%.
Following treatment, the media from the VSMC and HUVEC incubations were removed, and the amount of lactate dehydrogenase (LDH) released into the medium was determined with a commercial kit and expressed as a % increase over vehicle-treated cells. HPT toxicity was determined by the ethidium homodimer (EthHD) uptake assay. […] The lead compounds were also tested in two pairs of cell lines from the skin or prostate, one tumorigenic and one non-tumorigenic, to test for differing toxicity or heightened sensitivity in the tumorigenic lines. The cells were treated for 48 h with vehicle (0.1% DMSO) or 10 μM of each drug candidate, and the viability of the cells was determined by the MTT assay, expressed as a % decrease in viability compared to vehicle-treated cells. The in vivo inflammation model measured the % inhibition of rat paw edema induced by carageenan injection.

| Compound | inhibition in vivo at 50 mg/kg [%] |
| --- | --- |
| COc1cccc(Nc2nc(-c3ccccc3)c(C(=O)c3sc(Nc4cccc(OC)c4)nc3-c3ccccc3)s2)c1 [Example 392, Bis-[2-(3-methoxy-phenylamino)-4-phenyl-thiazol-5-yl]-methanone] | 62 |
| CS(=O)(=O)c1ccc(C(=O)c2sc(Nc3ccc(Cl)cc3)nc2N)cc1 [Example 336, [4-Amino-2-(4-chloro-phenylamino)-thiazol-5-yl]-(4-methanesulfonyl-phenyl)-methanone] | 28.3 |
| Cc1ccc(C(=O)c2cc(-c3ccc(S(C)(=O)=O)cc3)c(N3CCOCC3)s2)cc1 [Example 55, [4-(4-Methanesulfonyl-phenyl)-5-morpholin-4-yl-thiophene-2-yl]-p-tolyl-methanone] | -13.5 |
| O=C(c1cc(-c2ccc(Cl)cc2)c(N2CCOCC2)s1)c1cc(-c2ccc(Cl)cc2)c(N2CCOCC2)s1 [Example 114, Bis-[4-(4-chloro-phenyl)-5-morpholin-4-yl-thiophen-2-yl]-methanone] | 56.6 |
| O=C(c1cc(-c2ccccc2)c(N2CCOCC2)s1)c1ccc(Cl)cc1Cl [Example 46, (2,4-Dichloro-phenyl)-(5-morpholin-4-yl-4-phenyl-thiophene-2-yl)-methanone] | 68.3 |
| CS(=O)(=O)c1ccc(-c2cc(-c3nc4ccccc4c(=O)n3-c3ccccc3Cl)sc2N2CCOCC2)cc1 [Example 307, 2-[4-(4-Methanesulphonyl-phenyl)-5-morpholin-4-yl-thiophen-2-yl]-3-(2-chloro-phenyl)-3H-quinazolin-4-one] | 31 |
| COc1ccc(C(=O)c2sc(N3CCN(C(=O)c4ccco4)CC3)nc2-c2ccco2)cc1 [Example 372, {2-[4-(Furan-2-carbonyl)-piperazin-1-yl]-4-furan-2-yl-thiazol-5-yl}-(4-methoxy-phenyl)-methanone] | 52.2 |
| CS(=O)(=O)c1ccc(C(=O)c2sc(Nc3ccccc3)nc2N)cc1 [Example 325, (4-Amino-2-phenylamino-thiazol-5-yl)-(4-methanesulfonyl-phenyl)-methanone] | 12 |
| COc1ccc(Nc2nc(-c3ccccc3)c(C(=O)c3sc(Nc4ccc(OC)cc4)nc3-c3ccccc3)s2)cc1 [Example 393, Bis-[2-(4-methoxy-phenylamino)-4-phenyl-thiazol-5-yl]-methanone] | 32 |
| Cc1ccc(-n2c(-c3cc(-c4ccc(Cl)cc4)c(N4CCOCC4)s3)nc3ccccc3c2=O)cc1 [Example 291, 2-[4-(4-Chlorophenyl)-5-morpholin-4-yl-thiophen-2-yl]-3-p-tolyl-3H-quinazolin-4-one] | 53 |
| Nc1nc(Nc2ccccc2)sc1C(=O)c1ccccn1 [Example 329, (4-Amino-2-phenylamino-thiazol-5-yl)-pyridin-2-yl-methanone] | 54 |
| COc1ccc(Nc2nc(N)c(C(=O)c3ccc(OC)cc3)s2)cc1 [Example 343, ([4-Amino-2-(4-methoxy-phenylamino)-thiazol-5-yl]-(4-methoxy-phenyl)-methanone)] | 54 |
| Cc1cccc(-n2c(-c3cc(-c4ccc(S(C)(=O)=O)cc4)c(N4CCOCC4)s3)nc3ccccc3c2=O)c1 [Example 287, 2-[4-(4-Methanesulfonyl-phenyl)-5-morpholin-4-yl-thiophen-2-yl]-3-m-tolyl-3H-quinazolin-4-one] | 51 |
| O=C(Nc1nc(-c2ccccc2)c(C(=O)c2sc(NC(=O)c3ccco3)nc2-c2ccccc2)s1)c1ccco1 [Example 129, Bis-[2-(2-Furoyl-amino)-4-phenyl-thiazole-5-yl]-methanone] | 55 |

Same assay, conditions: rat paw edema, 50 mg/kg, reading 3 hours after carrageenan; [(Control−Test)/Control]×100%

| Compound | % Protection P [%] |
| --- | --- |
| [4-(4-Chloro-phenyl)-5-morpholin-4-yl-thiophen-2-yl]-(5-methoxy-4,6-dimethyl-pyridin-2-yl)-methanone [Example 76] | 17 |
| Cc1ccc(C(=O)c2sc(Nc3ccccc3)nc2N)cc1 [Example 322, 4-Amino-(2-phenylamino-thiazol-5-yl)-p-tolyl-methanone] | 23.98 |
